From PubChem BioAssay (NCI) come the findings set out here.

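In this assay, cells in 96-well plates receive the compound at five concentrations for 48 hours. Endpoints are linearly interpolated between the surrounding concentrations. TGI is the concentration that stops growth completely.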

One experiment concerns 786-0 renal. Put plainly: NCI-60 cell line screen, 48 h.
Regarding `CC(=O)OCC1OC(N2C(=O)/C(=C\c3ccc(Cl)cc3)C(N)=Nc3ccccc32)C(OC(C)=O)C(OC(C)=O)C1OC(C)=O` (stereo unspecified), the TGI is 43.6 µM.
As for `O=C(/C(=C(/Br)I)c1ccccc1)c1ccccc1`, the TGI turned out to be 39.5 µM.
Same read-out and setting: under `COc1ncc(C=C(C#N)C#N)c(OC)n1` stands 42.4 µM.
On the same count and under the same terms, then `COc1ccc(Nc2c(C#N)c3n(c4ccccc24)c2ccccc2[n+]3C)cc1OC`, with 8.77 µM.

The subject of a further experiment is A498 renal. Put plainly: NCI-60 cell line screen, 48 h.
The molecule `CC(=O)OCC1OC(N2C(=O)/C(=C\c3ccc(Cl)cc3)C(N)=Nc3ccccc32)C(OC(C)=O)C(OC(C)=O)C1OC(C)=O` (stereo unspecified) returned a TGI of more than 100 µM.
Same read-out and setting: under `O=C(/C(=C(/Br)I)c1ccccc1)c1ccccc1` stands 28.7 µM.
On the same count and under the same terms, then `COc1ncc(C=C(C#N)C#N)c(OC)n1`, with more than 100 µM; and `COc1ccc(Nc2c(C#N)c3n(c4ccccc24)c2ccccc2[n+]3C)cc1OC`, with 20.4 µM.

The next experiment has as its system A549 NSCLC. Put plainly: NCI-60 cell line screen, 48 h.
`CC(=O)OCC1OC(N2C(=O)/C(=C\c3ccc(Cl)cc3)C(N)=Nc3ccccc32)C(OC(C)=O)C(OC(C)=O)C1OC(C)=O` (stereo unspecified) yielded a TGI of more than 100 µM.
In turn, `O=C(/C(=C(/Br)I)c1ccccc1)c1ccccc1` returned a TGI of more than 100 µM.
In turn, `COc1ncc(C=C(C#N)C#N)c(OC)n1` yielded a TGI of more than 100 µM.
Still for that read-out and setting: then `COc1ccc(Nc2c(C#N)c3n(c4ccccc24)c2ccccc2[n+]3C)cc1OC`, with 14.9 µM.

A further experiment concerns ACHN renal. Put plainly: NCI-60 cell line screen, 48 h.
`CC(=O)OCC1OC(N2C(=O)/C(=C\c3ccc(Cl)cc3)C(N)=Nc3ccccc32)C(OC(C)=O)C(OC(C)=O)C1OC(C)=O` (stereo unspecified) displayed a TGI of 45.7 µM.
On the same count and under the same terms, then `O=C(/C(=C(/Br)I)c1ccccc1)c1ccccc1`, with 71.2 µM.
In turn, `COc1ncc(C=C(C#N)C#N)c(OC)n1` showed a TGI of more than 100 µM.
Consider `COc1ccc(Nc2c(C#N)c3n(c4ccccc24)c2ccccc2[n+]3C)cc1OC`, for which the TGI was determined as 7.86 µM.

For a further experiment, the system named is BT-549 breast. Put plainly: NCI-60 cell line screen, 48 h.
In turn, `CC(=O)OCC1OC(N2C(=O)/C(=C\c3ccc(Cl)cc3)C(N)=Nc3ccccc32)C(OC(C)=O)C(OC(C)=O)C1OC(C)=O` (stereo unspecified) came in with a TGI of more than 100 µM.
On to `O=C(/C(=C(/Br)I)c1ccccc1)c1ccccc1`, for which the TGI is 54.3 µM.
Still for that read-out and setting: then `COc1ncc(C=C(C#N)C#N)c(OC)n1`, with more than 100 µM; and `COc1ccc(Nc2c(C#N)c3n(c4ccccc24)c2ccccc2[n+]3C)cc1OC`, with 42.6 µM.

The test system of the next experiment is CAKI-1 renal. Put plainly: NCI-60 cell line screen, 48 h.
The molecule `CC(=O)OCC1OC(N2C(=O)/C(=C\c3ccc(Cl)cc3)C(N)=Nc3ccccc32)C(OC(C)=O)C(OC(C)=O)C1OC(C)=O` (stereo unspecified) showed a TGI of more than 100 µM.
The same measure, in the same setting: under `O=C(/C(=C(/Br)I)c1ccccc1)c1ccccc1` stands more than 100 µM; under `COc1ncc(C=C(C#N)C#N)c(OC)n1`, more than 100 µM.
Same read-out and setting: then `COc1ccc(Nc2c(C#N)c3n(c4ccccc24)c2ccccc2[n+]3C)cc1OC`, with 4.33 µM.

A further experiment concerns CCRF-CEM leukemia. Put plainly: NCI-60 cell line screen, 48 h.
Molecule `O=C(/C(=C(/Br)I)c1ccccc1)c1ccccc1` showed a TGI of 30.4 µM.
Molecule `COc1ncc(C=C(C#N)C#N)c(OC)n1` gave a TGI of 32.6 µM.
Same read-out and setting: then `COc1ccc(Nc2c(C#N)c3n(c4ccccc24)c2ccccc2[n+]3C)cc1OC`, with more than 100 µM.

The subject of another experiment is COLO 205 colon. Put plainly: NCI-60 cell line screen, 48 h.
As for `CC(=O)OCC1OC(N2C(=O)/C(=C\c3ccc(Cl)cc3)C(N)=Nc3ccccc32)C(OC(C)=O)C(OC(C)=O)C1OC(C)=O` (stereo unspecified), the TGI came out at 29.8 µM.
Same read-out and setting: then `O=C(/C(=C(/Br)I)c1ccccc1)c1ccccc1`, with 36.5 µM; and `COc1ncc(C=C(C#N)C#N)c(OC)n1`, with more than 100 µM.
The same measure, in the same setting: then `COc1ccc(Nc2c(C#N)c3n(c4ccccc24)c2ccccc2[n+]3C)cc1OC`, with 12 µM.

For another experiment, the system named is DU-145 prostate. Put plainly: NCI-60 cell line screen, 48 h.
The molecule `CC(=O)OCC1OC(N2C(=O)/C(=C\c3ccc(Cl)cc3)C(N)=Nc3ccccc32)C(OC(C)=O)C(OC(C)=O)C1OC(C)=O` (stereo unspecified) came in with a TGI of more than 100 µM.
On the same count and under the same terms, then `O=C(/C(=C(/Br)I)c1ccccc1)c1ccccc1`, with 30.9 µM; and `COc1ncc(C=C(C#N)C#N)c(OC)n1`, with more than 100 µM.
The same measure, in the same setting: then `COc1ccc(Nc2c(C#N)c3n(c4ccccc24)c2ccccc2[n+]3C)cc1OC`, with 18.5 µM.

The subject of another experiment is EKVX NSCLC. Nature of the experiment: NCI-60 cell line screen, 48 h.
The molecule `CC(=O)OCC1OC(N2C(=O)/C(=C\c3ccc(Cl)cc3)C(N)=Nc3ccccc32)C(OC(C)=O)C(OC(C)=O)C1OC(C)=O` (stereo unspecified) had a TGI of more than 100 µM.
As to `O=C(/C(=C(/Br)I)c1ccccc1)c1ccccc1`, the TGI came to 89.1 µM.
In turn, `COc1ncc(C=C(C#N)C#N)c(OC)n1` came in with a TGI of more than 100 µM.
Same read-out and setting: under `COc1ccc(Nc2c(C#N)c3n(c4ccccc24)c2ccccc2[n+]3C)cc1OC` stands 10.1 µM.

The next experiment relates to HCC-2998 colon. Put plainly: NCI-60 cell line screen, 48 h.
Consider `CC(=O)OCC1OC(N2C(=O)/C(=C\c3ccc(Cl)cc3)C(N)=Nc3ccccc32)C(OC(C)=O)C(OC(C)=O)C1OC(C)=O` (stereo unspecified), for which the TGI was found to be 36.5 µM.
Same read-out and setting: under `O=C(/C(=C(/Br)I)c1ccccc1)c1ccccc1` stands 30.1 µM; under `COc1ccc(Nc2c(C#N)c3n(c4ccccc24)c2ccccc2[n+]3C)cc1OC`, 13.7 µM.

For a further experiment, the system named is HCT-116 colon. Put plainly: NCI-60 cell line screen, 48 h.
With `CC(=O)OCC1OC(N2C(=O)/C(=C\c3ccc(Cl)cc3)C(N)=Nc3ccccc32)C(OC(C)=O)C(OC(C)=O)C1OC(C)=O` (stereo unspecified), the TGI worked out at 30.2 µM.
`O=C(/C(=C(/Br)I)c1ccccc1)c1ccccc1` registered a TGI of 31.7 µM.
Take `COc1ncc(C=C(C#N)C#N)c(OC)n1`: the TGI was 74.9 µM.
For the molecule `COc1ccc(Nc2c(C#N)c3n(c4ccccc24)c2ccccc2[n+]3C)cc1OC`, the TGI amounted to 7.56 µM.

The test system of a further experiment is HCT-15 colon. Put plainly: NCI-60 cell line screen, 48 h.
Consider `CC(=O)OCC1OC(N2C(=O)/C(=C\c3ccc(Cl)cc3)C(N)=Nc3ccccc32)C(OC(C)=O)C(OC(C)=O)C1OC(C)=O` (stereo unspecified), for which the TGI came out at 59.2 µM.
Same read-out and setting: then `O=C(/C(=C(/Br)I)c1ccccc1)c1ccccc1`, with 79.3 µM.
On the same count and under the same terms, under `COc1ncc(C=C(C#N)C#N)c(OC)n1` stands more than 100 µM; under `COc1ccc(Nc2c(C#N)c3n(c4ccccc24)c2ccccc2[n+]3C)cc1OC`, 6.5 µM.

The subject of a further experiment is HL-60(TB) leukemia. Nature of the experiment: NCI-60 cell line screen, 48 h.
As to `CC(=O)OCC1OC(N2C(=O)/C(=C\c3ccc(Cl)cc3)C(N)=Nc3ccccc32)C(OC(C)=O)C(OC(C)=O)C1OC(C)=O` (stereo unspecified), the TGI is more than 100 µM.
`O=C(/C(=C(/Br)I)c1ccccc1)c1ccccc1` gave a TGI of more than 100 µM.
In the case of `COc1ncc(C=C(C#N)C#N)c(OC)n1`, the TGI came out at 49.7 µM.
`COc1ccc(Nc2c(C#N)c3n(c4ccccc24)c2ccccc2[n+]3C)cc1OC` registered a TGI of more than 100 µM.

A further experiment relates to HOP-62 NSCLC. Put plainly: NCI-60 cell line screen, 48 h.
Molecule `CC(=O)OCC1OC(N2C(=O)/C(=C\c3ccc(Cl)cc3)C(N)=Nc3ccccc32)C(OC(C)=O)C(OC(C)=O)C1OC(C)=O` (stereo unspecified) yielded a TGI of 85.7 µM.
The same measure, in the same setting: then `COc1ncc(C=C(C#N)C#N)c(OC)n1`, with more than 100 µM.
